Patent US11028061B2, “Modulators of myocyte lipid accumulation and insulin resistance and methods of use thereof” (Sanford Burnham Prebys Medical Discovery Institute, priority 2015, dated 2021)

What was measured:
AMPK = test: Western blot of AMPK activation; format: cell-based, human; details: 24 hours
Procedure: (§1) FIGS. 3D and G show SBI-477-mediated increase in glucose uptake in oleate-loaded skeletal myotubes (FIG. 3D) SBI-477 increases glucose uptake in oleate-loaded human skeletal myotubes. Basal and insulin-stimulated [3H]2-DG uptake was measured in human skeletal myotubes following treatment with SBI-477 for 24 hours in the presence of 100 μM oleate or BSA as a control. *p<0.05 vs. vehicle, †p<0.05 vs. vehicle/insulin by one-way ANOVA with Bonferroni post hoc test. FIG. 3G—Western blot analysis (left) of human myotubes treated with SBI-477 for 24 hours was performed to determine activation of S6K and AMPK using the indicated phospho-specific antibodies. Insulin treatment (100 nM) for 30 minutes was used as positive control. Quantitation (right) of the Western blot data is shown (n=4-5). *p<0.05 vs. Vehicle by one-way ANOVA with Bonferroni post hoc test. The data represent mean±SD.
(§2) Cells were lysed in the RIPA buffer containing 1% NP-40, 5 mM Na4P2O7, 1 mM EDTA, 20 mM NaF, 2 mM Na3VO4, 1× cOmplete™ protease inhibitor (Roche) and 1 mM phenylmethylsulfonyl fluoride. Whole cell lysates were subjected to SDS-PAGE and transferred to a nitrocellulose membrane. The blots were hybridized with specific antibodies and developed with enhanced chemiluminescence kit (Pierce). […] Protein quantification was performed using FluorChemQ (Alpha Innotech) and normalized to […]-actin or total protein where indicated.

human TXNIP promoter = test: TXNIP promoter luciferase reporter assay in H9c2 myocytes; format: cell-based, rat; details: 24 hours
Procedure: Transient transfections were performed using Attractene (Qiagen) according to the manufacturer's protocols. A full length (1.5 kb) and two serial deletion (1.0 kb and 0.5 kb) reporters of the human TXNIP promoter were generously provided by Dr. Fumihiko Urano (Washington University School of Medicine). Mutation of the carbohydrate-responsive elements (ChoREs) of the reporters was generated by QuikChange II Site-Directed Mutagenesis kit (Agilent). H9c2 myoblast cells (ATCC) were cotransfected with 700 ng of the reporter and 25 ng of CMV promoter driven Renilla luciferase as a control for transfection efficiency. Eighteen hours after transfection, the cells were cultured in DMEM supplemented with 1% fetal bovine serum to induce differentiation for 4 days. SBI-477 was added during the last 24 hours at the indicated concentration. After compound incubation, luciferase activity was measured using the Dual-Glo luciferase assay system (Promega) according to the manufacturer's protocols.

[1] = system: primary human skeletal myotubes; test: Fatty acid oxidation (FAO) assay, 3H-palmitate; format: cell-based; details: 24 hours
Procedure: FAO rates were determined for primary human skeletal myotubes with or without SBI-477 using 125 μM [3H]-palmitic acid (Djouadi, et al., Mol Genet Metab. 2003; 78(2):112-118). Primary human skeletal myotubes were grown and differentiated in 24-well plates. Cells were treated with the indicated concentration of SBI-477 for 24 hours. Following compound treatment, cells were rinsed three times with PBS and then incubated in 125 μM [3H]-palmitic acid (60 Ci/mmol) bound to fatty acid free albumin containing 1 mM carnitine for 2 hours at 37° C. The cell medium was transferred to a tube containing cold 10% trichloroacetic acid (TCA). The tubes were centrifuged at 8,500×g for 10 minutes at 4° C. The supernatant was immediately removed, mixed with 6N NaOH, and applied to ion-exchange resin (DOWEX 1; Sigma-Aldrich). The eluate was collected, measured by liquid scintillation analyzer (PerkinElmer) and normalized to total protein amount. The amount of cell protein was measured by Micro BCA protein assay kit (Thermo Scientific).

S6K = test: Western blot of pS6K (T389); format: cell-based, human; details: 24 hours
Procedure: as §1, §2

primary human myotubes = test: Fatty acid uptake (3H-oleate); format: cell-based; details: 10 μM, 24 hours
Procedure: FIGS. 1A-1C show SBI-477 as a small molecule inhibitor of neutral lipid accumulation in human skeletal myotubes. […] Data is shown as percent of DMSO vehicle control. Representative of >5 experiments. FIGS. 1B and 1C show dose-dependent inhibition of myocyte TAG accumulation by SBI-477. FIG. 1B—primary human myotubes were incubated with the indicated concentrations of SBI-477, 1 μM triascin C, 1 μM A922500 (DGAT inhibitor) or vehicle control with 100 μM oleate for 24 hours. Fatty acid free bovine serum albumin (BSA) was included as non-lipid loading control. Bars represent mean triglyceride level normalized to total protein±SD. *p<0.001 vs. oleate/vehicle control by one-way ANOVA with Bonferroni post hoc test. FIG. 1C—primary human myotubes were incubated with 10 μM SBI-477 or vehicle control for 24 hours. Fatty acid (FA) uptake was measured as cellular uptake of 3H-oleate. Bars represent fatty acid uptake normalized to the vehicle control. FIGS. 1D-1F show the effect of SBI-477 on FAO rates in human skeletal myotubes. […] FAO rates were determined by 3H-palmitate oxidation (n=5). […] Total cellular triglyceride levels were determined following incubation with SBI-477 (10 μM) for 24 hours with etomoxir (50 μM) in the absence (FIG. 1E) or presence of 1 mM carnitine (FIG. 1F) (n=4). *p<0.05 vs. vehicle control.

COc1ccc(-c2csc(NC(=O)c3ccc(OCC(=O)N4CCOCC4)c(OC)c3)n2)cc1 [Cpd. 7, 3-methoxy-N-(4-(4-methoxyphenyl)thiazol-2-yl)-4-(2-morpholino-2-oxoethoxy)benzamide]
AMPK activation (AMPK): activation of AMPK | TXNIP promoter activity (luciferase) (human TXNIP promoter): decreased promoter activity in a dose dependent manner | FAO rates [1]: increased by SBI-477 in a dose-dependent manner | Levels of pS6K (T389) (S6K): reduced | Cellular fatty acid uptake (primary human myotubes): not due to blocking cellular fatty acid uptake
